The subject of one data set is human α1 AGP. Briefly: Equilibrium dialysis with human α1 AGP. The format is in vitro ADME. As to conditions: 1 µM, 0.1% AGP, pH 7.4, 37 °C, 4 h, n = 3.
The test system of data set [1] is ABCA1 induction in human whole blood. Put plainly: Human whole blood assay. The format is cell-based. As to conditions: for improvement in hWBA potency compared to 5: ratio of hWBA EC50 values vs 5.
Data set [2] concerns the target human serum albumin (HSA) (Homo sapiens, UniProt P02768). Put plainly: Equilibrium dialysis with HSA. The class given is in vitro ADME. As to conditions: 1 µM, 4% HSA, pH 7.4, 37 °C, 4 h, n = 3. In general terms: In equilibrium dialysis only unbound substance equilibrates across the membrane.
For data set [3] the following is noted: after multiple days of dosing, limited therapeutic window; cited from earlier work.

Sequence of human serum albumin (HSA) (P02768 25-609): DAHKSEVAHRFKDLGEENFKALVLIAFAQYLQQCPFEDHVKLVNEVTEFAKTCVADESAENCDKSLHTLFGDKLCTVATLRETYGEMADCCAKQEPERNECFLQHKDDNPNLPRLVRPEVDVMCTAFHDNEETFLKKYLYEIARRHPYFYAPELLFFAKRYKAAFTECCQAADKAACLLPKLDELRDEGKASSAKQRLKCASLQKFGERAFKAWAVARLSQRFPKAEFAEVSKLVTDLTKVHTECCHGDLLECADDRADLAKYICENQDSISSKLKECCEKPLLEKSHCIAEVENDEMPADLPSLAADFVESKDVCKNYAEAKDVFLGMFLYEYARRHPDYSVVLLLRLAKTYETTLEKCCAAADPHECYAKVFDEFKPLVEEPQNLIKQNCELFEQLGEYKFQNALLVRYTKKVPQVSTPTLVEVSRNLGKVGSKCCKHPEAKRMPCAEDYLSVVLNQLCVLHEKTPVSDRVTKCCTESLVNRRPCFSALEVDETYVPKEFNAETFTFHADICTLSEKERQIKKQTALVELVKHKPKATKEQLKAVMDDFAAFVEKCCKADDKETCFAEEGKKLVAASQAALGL

With `CC(C)(O)c1cn(-c2ccc(-c3cccc(S(C)(=O)=O)c3)cc2)c(C(C)(C)c2c(Cl)cccc2Cl)n1` [Example 6], the “human α1 AGP (% bound)” value in the data set on human α1 AGP is on record as 99.6 ± 0.2%. In data set [1], the “improvement in hWBA potency compared to 5” value came out at 3 fold.
Regarding `CC(C)(O)c1cn(-c2ccc(-c3cc(F)c(CO)c(S(C)(=O)=O)c3)cc2)c(C(C)(C)c2ccccc2Cl)n1` [Example 10], in data set [1], the “improvement in hWBA potency compared to 5” value was determined as 20 fold.
Take `CC(C)(O)c1cn(-c2ccc(-c3cc(F)c(CO)c(S(C)(=O)=O)c3)cc2)c(C(C)(C)c2c(Cl)cccc2Cl)n1` [Example 12]: the “improvement in hWBA potency” value in data set [1] (2,6-dichloro analogue vs 10) is given as 3–4 fold.
In the case of `CC(C)(O)c1cn(-c2ccc(-c3cccc(S(C)(=O)=O)c3)cc2)c(C(C)(C)c2ccccc2Cl)n1` [Example 5], the “HSA (% bound)” value in data set [2] was found to be 97.2 ± 0.3%. Besides, the “human α1 AGP (% bound)” value with human α1 AGP stood at 99.9 ± 0.0%.
For the molecule `CC(C)(O)c1cn(-c2ccc(-c3cc(F)c(CO)c(S(C)(=O)=O)c3)cc2F)c(C(C)(C)c2c(Cl)cccc2Cl)n1` [Example 15], the “TGs and LDL-C in human trials” value in data set [3] is given as “elevated”.

The record behind these values is publication PMC5150697 (ACS Medicinal Chemistry Letters, 2016).
